According to patent US8796289B2 (AbbVie Inc., priority 2011, dated 2014):

target: GST-tagged-Wee1 kinase (Homo sapiens, UniProt P30291); assay: Wee1 time-resolved fluorescence equilibrium binding assay (displacement of Oregon Green-labeled ATP-competitive kinase probe)
Procedure: Wee1 kinase was assayed using a time-resolved fluorescence equilibrium binding assay monitoring displacement of a rapidly reversible Oregon Green-labeled ATP-competitive kinase probe (N-(2-(2-(2-(4-(4-(5-chloro-4-(2-(1-hydroxycyclobutyl)thiazol-5-yl)-1H-pyrrolo[2,3-b]pyridin-2-yl)phenyl)piperazin-1-yl)ethoxy)ethoxy)ethyl)-2′,7′-difluoro-3′,6′-dihydroxy-3-oxo-3H-spiro[isobenzofuran-1,9′-xanthene]-5-carboxamide) by competitive Wee1 inhibitors.

Chain of GST-tagged-Wee1 kinase (P30291 whole entry): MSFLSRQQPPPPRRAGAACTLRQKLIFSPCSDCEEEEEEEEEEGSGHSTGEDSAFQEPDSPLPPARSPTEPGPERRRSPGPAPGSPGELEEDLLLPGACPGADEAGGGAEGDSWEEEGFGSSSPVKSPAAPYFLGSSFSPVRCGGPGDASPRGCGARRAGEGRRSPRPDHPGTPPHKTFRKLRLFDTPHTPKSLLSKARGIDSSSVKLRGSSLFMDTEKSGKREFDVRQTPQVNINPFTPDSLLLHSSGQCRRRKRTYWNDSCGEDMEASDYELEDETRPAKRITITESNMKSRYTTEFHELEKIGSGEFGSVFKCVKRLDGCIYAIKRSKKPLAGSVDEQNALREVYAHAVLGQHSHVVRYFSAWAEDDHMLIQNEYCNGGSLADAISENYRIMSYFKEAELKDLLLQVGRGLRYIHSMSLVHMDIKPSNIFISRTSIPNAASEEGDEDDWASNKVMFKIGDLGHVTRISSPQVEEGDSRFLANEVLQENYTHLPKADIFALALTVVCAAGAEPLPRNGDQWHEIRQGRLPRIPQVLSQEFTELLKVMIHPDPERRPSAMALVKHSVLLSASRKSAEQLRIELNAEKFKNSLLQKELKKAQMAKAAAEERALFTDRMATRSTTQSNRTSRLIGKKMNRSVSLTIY

Ki [nM]	SMILES
0.21	CCc1nn(-c2c(Cl)cccc2Cl)c(=O)c2cnc(Nc3ccc4c(c3)CNCC4)nc12 [Example 403, 6-(2,6-dichlorophenyl)-8-ethyl-2-(1,2,3,4-tetrahydroisoquinolin-7-ylamino)pyrimido[4,5-d]pyridazin-5(6H)-one]
0.25	CCc1nn(-c2c(Cl)cccc2Cl)c(=O)c2cnc(Nc3ccc4c(c3)CNCC43CC3)nc12 [Example 404, 6-(2,6-dichlorophenyl)-2-(2′,3′-dihydro-1′H-spiro[cyclopropane-1,4′-isoquinolin]-7′-ylamino)-8-ethylpyrimido[4,5-d]pyridazin-5(6H)-one]
0.79	O=c1c2cnc(Nc3ccc(N4CCNCC4)cc3)nc2c(C(F)F)nn1-c1c(Cl)cccc1Cl [Example 405, 6-(2,6-dichlorophenyl)-8-(difluoromethyl)-2-{[4-(piperazin-1-yl)phenyl]amino}pyrimido[4,5-d]pyridazin-5(6H)-one]
0.7	CCc1nn(-c2c(Cl)cccc2Cl)c(=O)c2cnc(Nc3ccc4c(c3)CC(N(C)C)C4)nc12 (centres unmarked) [Example 406, 6-(2,6-dichlorophenyl)-2-{[2-(dimethylamino)-2,3-dihydro-1H-inden-5-yl]amino}-8-ethylpyrimido[4,5-d]pyridazin-5(6H)-one]
0.21	O=c1c2cnc(Nc3ccc4c(c3)CNCC43CC3)nc2c(C(F)F)nn1-c1c(Cl)cccc1Cl [Example 407, 6-(2,6-dichlorophenyl)-8-(difluoromethyl)-2-(2′,3′-dihydro-1′H-spiro[cyclopropane-1,4′-isoquinolin]-7′-ylamino)pyrimido[4,5-d]pyridazin-5(6H)-one]
0.41	CN(C)C1Cc2ccc(Nc3ncc4c(=O)n(-c5c(Cl)cccc5Cl)nc(C(F)F)c4n3)cc2C1 (centres unmarked) [Example 408, 6-(2,6-dichlorophenyl)-8-(difluoromethyl)-2-{[2-(dimethylamino)-2,3-dihydro-1H-inden-5-yl]amino}pyrimido[4,5-d]pyridazin-5(6H)-one]
1	CCc1nn(-c2c(Cl)cccc2Cl)c(=O)c2cnc(Nc3ccc(N4CCNCC4)cc3)nc12 [Example 409, 6-(2,6-dichlorophenyl)-8-ethyl-2-{[4-(piperazin-1-yl)phenyl]amino}pyrimido[4,5-d]pyridazin-5(6H)-one]
1	O=c1c2cnc(Nc3ccc4c(c3)CNCC4)nc2c(C(F)F)nn1-c1c(Cl)cccc1Cl [Example 410, 6-(2,6-dichlorophenyl)-8-(difluoromethyl)-2-(1,2,3,4-tetrahydroisoquinolin-7-ylamino)pyrimido[4,5-d]pyridazin-5(6H)-one]
1	CN1Cc2cc(Nc3ncc4c(=O)n(-c5c(Cl)cccc5Cl)nc(C(F)F)c4n3)ccc2C2(CC2)C1 [Example 411, 6-(2,6-dichlorophenyl)-8-(difluoromethyl)-2-[(2′-methyl-2′,3′-dihydro-1′H-spiro[cyclopropane-1,4′-isoquinolin]-7′-yl)amino]pyrimido[4,5-d]pyridazin-5(6H)-one]
1	CN1CCN(c2ccc(Nc3ncc4c(=O)n(-c5c(Cl)cccc5Cl)nc(C(F)(F)F)c4n3)cc2)CC1 [Example 412, 6-(2,6-dichlorophenyl)-2-{[4-(4-methylpiperazin-1-yl)phenyl]amino}-8-(trifluoromethyl)pyrimido[4,5-d]pyridazin-5(6H)-one]
0.34	CN1Cc2cc(Nc3ncc4c(=O)n(-c5c(Cl)cccc5Cl)nc(C(F)(F)F)c4n3)ccc2C2(CC2)C1 [Example 413, 6-(2,6-dichlorophenyl)-2-[(2′-methyl-2′,3′-dihydro-1′H-spiro[cyclopropane-1,4′-isoquinolin]-7′-yl)amino]-8-(trifluoromethyl)pyrimido[4,5-d]pyridazin-5(6H)-one]
0.75	CCc1nn(-c2c(Cl)cccc2Cl)c(=O)c2cnc(Nc3ccc(N4CCN(C(C)=O)CC4)cc3)nc12 [Example 414, 2-{[4-(4-acetylpiperazin-1-yl)phenyl]amino}-6-(2,6-dichlorophenyl)-8-ethylpyrimido[4,5-d]pyridazin-5(6H)-one]
1	CC(=O)N1Cc2cc(Nc3ncc4c(=O)n(-c5c(Cl)cccc5Cl)nc(C(F)F)c4n3)ccc2C2(CC2)C1 [Example 415, 2-[(2′-acetyl-2′,3′-dihydro-1′H-spiro[cyclopropane-1,4′-isoquinolin]-7′-yl)amino]-6-(2,6-dichlorophenyl)-8-(difluoromethyl)pyrimido[4,5-d]pyridazin-5(6H)-one]
0.19	Cc1nn(-c2c(Cl)cccc2Cl)c(=O)c2cnc(Nc3ccc4c(c3)CN(C(N)=O)CC43CC3)nc12 [Example 416, 7′-{[6-(2,6-dichlorophenyl)-8-methyl-5-oxo-5,6-dihydropyrimido[4,5-d]pyridazin-2-yl]amino}-1′H-spiro[cyclopropane-1,4′-isoquinoline]-2′(3′H)-carboxamide]
0.31	CC(=O)N1Cc2cc(Nc3ncc4c(=O)n(-c5c(Cl)cccc5Cl)nc(C)c4n3)ccc2C2(CC2)C1 [Example 417, 2-[(2′-acetyl-2′,3′-dihydro-1′H-spiro[cyclopropane-1,4′-isoquinolin]-7′-yl)amino]-6-(2,6-dichlorophenyl)-8-methylpyrimido[4,5-d]pyridazin-5(6H)-one]
0.35	O=c1c2cnc(Nc3ccc(N4CCNCC4)cc3)nc2c(C(F)(F)F)nn1-c1c(Cl)cccc1Cl [Example 418, 6-(2,6-dichlorophenyl)-2-{[4-(piperazin-1-yl)phenyl]amino}-8-(trifluoromethyl)pyrimido[4,5-d]pyridazin-5(6H)-one]
0.19	CN1CCN(c2ccc(Nc3ncc4c(=O)n(-c5c(Cl)cccc5Cl)nc(CF)c4n3)cc2)CC1 [Example 419, 6-(2,6-dichlorophenyl)-8-(fluoromethyl)-2-{[4-(4-methylpiperazin-1-yl)phenyl]amino}pyrimido[4,5-d]pyridazin-5(6H)-one]
0.45	O=c1c2cnc(Nc3ccc4c(c3)CNCC43CC3)nc2c(C(F)(F)F)nn1-c1c(Cl)cccc1Cl [Example 420, 6-(2,6-dichlorophenyl)-2-(2′,3′-dihydro-1′H-spiro[cyclopropane-1,4′-isoquinolin]-7′-ylamino)-8-(trifluoromethyl)pyrimido[4,5-d]pyridazin-5(6H)-one]
0.5	O=c1c2cnc(Nc3ccc4c(c3)CNCC4)nc2c(C(F)(F)F)nn1-c1c(Cl)cccc1Cl [Example 421, 6-(2,6-dichlorophenyl)-2-(1,2,3,4-tetrahydroisoquinolin-7-ylamino)-8-(trifluoromethyl)pyrimido[4,5-d]pyridazin-5(6H)-one]
0.4	O=c1c2cnc(Nc3ccc(C4CCNC4)cc3)nc2c(C(F)(F)F)nn1-c1c(Cl)cccc1Cl (centres unmarked) [Example 422, 6-(2,6-dichlorophenyl)-2-{[4-(pyrrolidin-3-yl)phenyl]amino}-8-(trifluoromethyl)pyrimido[4,5-d]pyridazin-5(6H)-one]
0.7	COCc1nn(-c2c(Cl)cccc2Cl)c(=O)c2cnc(Nc3ccc(N4CCN(C)CC4)cc3)nc12 [Example 423, 6-(2,6-dichlorophenyl)-8-(methoxymethyl)-2-{[4-(4-methylpiperazin-1-yl)phenyl]amino}pyrimido[4,5-d]pyridazin-5(6H)-one]
0.4	COCc1nn(-c2c(Cl)cccc2Cl)c(=O)c2cnc(Nc3ccc(N4CCNCC4)cc3)nc12 [Example 424, 6-(2,6-dichlorophenyl)-8-(methoxymethyl)-2-{[4-(piperazin-1-yl)phenyl]amino}pyrimido[4,5-d]pyridazin-5(6H)-one]
0.19	Cc1nn(-c2c(Cl)cccc2Cl)c(=O)c2cnc(Nc3ccc(N4CCC(N(C)C)CC4)cc3)nc12 [Example 425, 6-(2,6-dichlorophenyl)-2-({4-[4-(dimethylamino)piperidin-1-yl]phenyl}amino)-8-methylpyrimido[4,5-d]pyridazin-5(6H)-one]
0.11	Cc1nn(-c2c(Cl)cccc2Cl)c(=O)c2cnc(Nc3ccc4c(c3)CN(C(=O)CO)CC43CC3)nc12 [Example 426, 6-(2,6-dichlorophenyl)-2-{[2′-(hydroxyacetyl)-2′,3′-dihydro-1′H-spiro[cyclopropane-1,4′-isoquinolin]-7′-yl]amino}-8-methylpyrimido[4,5-d]pyridazin-5(6H)-one]
0.91	Cc1nn(-c2c(Cl)cccc2Cl)c(=O)c2cnc(Nc3ccc4c(c3)CN(S(C)(=O)=O)CC43CC3)nc12 [Example 427, 6-(2,6-dichlorophenyl)-8-methyl-2-{[2′-(methylsulfonyl)-2′,3′-dihydro-1′H-spiro[cyclopropane-1,4′-isoquinolin]-7′-yl]amino}pyrimido[4,5-d]pyridazin-5(6H)-one]
0.24	COCc1nn(-c2c(Cl)cccc2Cl)c(=O)c2cnc(Nc3ccc4c(c3)CNCC43CC3)nc12 [Example 428, 6-(2,6-dichlorophenyl)-2-(2′,3′-dihydro-1′H-spiro[cyclopropane-1,4′-isoquinolin]-7′-ylamino)-8-(methoxymethyl)pyrimido[4,5-d]pyridazin-5(6H)-one]
0.48	COCc1nn(-c2c(Cl)cccc2Cl)c(=O)c2cnc(Nc3ccc4c(c3)CN(C)CC43CC3)nc12 [Example 429, 6-(2,6-dichlorophenyl)-8-(methoxymethyl)-2-[(2′-methyl-2′,3′-dihydro-1′H-spiro[cyclopropane-1,4′-isoquinolin]-7′-yl)amino]pyrimido[4,5-d]pyridazin-5(6H)-one]
0.2	O=c1c2cnc(Nc3ccc(N4CCNCC4)cc3)nc2c(CO)nn1-c1c(Cl)cccc1Cl [Example 430, 6-(2,6-dichlorophenyl)-8-(hydroxymethyl)-2-{[4-(piperazin-1-yl)phenyl]amino}pyrimido[4,5-d]pyridazin-5(6H)-one]
0.42	CN1CCN(c2ccc(Nc3ncc4c(=O)n(-c5c(Cl)cccc5Cl)nc(CO)c4n3)cc2)CC1 [Example 431, 6-(2,6-dichlorophenyl)-8-(hydroxymethyl)-2-{[4-(4-methylpiperazin-1-yl)phenyl]amino}pyrimido[4,5-d]pyridazin-5(6H)-one]
